This note sets out measurements from patent US12213975B2, “PDE9 inhibitors for treating sickle cell disease” (Cardurion Pharmaceuticals, Inc., priority 2018, dated 2025).

One data set concerns SCD models. As to the kind of experiment: Circulating levels of PMNs in SCD models. The format is in vivo.
Data set [1] has as its system SCD patient neutrophils adhering to activated endothelial cells HMEC-1. As to the kind of experiment: In vitro adhesion assay mimicking blood flow: SS patient neutrophils on activated HMEC-1 lined microchannels. The class given is cell-based, human. An excerpt:
This appears to be accompanied by a Compound 1-mediated reduction in disease specific cell activation including 67% lower levels of myeloid derived myeloperoxidase (MPO) and 26% lower levels of neutrophil derived arginase in the lung (FIG. 1). […] This was quantified by real time monitoring of the green florescent patches in the mircochannel, as neutrophils are labeled by a specific Alexa Fluor® 488-conjugated antibody before the perfusion step. […] Under these conditions, adhesion was reduced an average of 54% (p=0.03) (FIG. 2). Mechanistically, not willing to be bound by any theory, Compound 1 may target the stationary adhesion step of neutrophils as it lowered expression levels of key neutrophil integrins including CD11a [reduced 23% (p=0.002)], CD11b [reduced 39% (ns)) and CD18 [reduced 47% (p=0.03)) (FIG. 3).

The subject of a further data set is Townes mouse model. As to the kind of experiment: Plasma sE-Selectin in Townes mouse model of SCD. The class given is in vivo. The settings on record: Townes mice treated with Compound 1. An excerpt:
Recently several drugs targeting white cell binding to endothelial cells, have been advancing in clinical studies in patients. Compound 1 is able to increase expression of fetal hemoglobin in patient derived cells and murine models of SCD and reduce vessel occlusion in SCD murine models. In this Example, the ability of Compound 1 to reduce the adhesive properties of neutrophils from SCD patients and reduce sE-Selectin (sE-Sel) and markers of PMN activation in murine SCD models was studied.
Endothelial E-selectin (E-Sel) slows leukocyte rolling, which is followed by stationary adhesion and transmigration of activated leukocytes. Plasma levels of sE-Sel, produced by the enzymatic cleavage of the extracellular domains of E-Sel, are increased in SCD patients and this may be mediated by its interaction with leukocytes. In the Townes mouse model, plasma sE-Sel is increased 144% ([…]) over levels seen in control mice ([…]).

The subject of another data set is patient. As to the kind of experiment: Adverse event profile when taken with food. The settings on record: once a day with food. The class given is in vivo. How it is done: In some embodiments, Compound 1 or a pharmaceutically acceptable salt or polymorph thereof is administered to a patient, wherein Compound 1 or a pharmaceutically acceptable salt or polymorph thereof is administered once a day with food. […] The incidence and severity of the side effects, such as nausea, emesis and headache, can be reduced when Compound 1 or a pharmaceutically acceptable salt or polymorph thereof, is taken with food.

On to `C[C@@H]1CN(Cc2ncccn2)C[C@H]1c1cn2c(C3CCOCC3)ncc2c(=O)[nH]1` [Compound 1, 6-[(3S,4S)-4-methyl-1-(pyrimidin-2-ylmethyl)pyrrolidin-3-yl]-3-tetrahydropyran-4-yl-7H-imidazo[1,5-a]pyrazin-8-one], for which the “circulating levels of PMNs” value with SCD models is listed as “reduced circulating levels of PMNs”. In addition, the “incubation time at which inhibitory effect was initiated” value in data set [1] is given as 15 min. Besides, the “reduction of neutrophil adhesion (average)” value in data set [1] (30 min incubation with 30 μM, p=0.03, FIG. 2) was 54%. Moreover, in data set [1] (added to blood samples prior to the perfusion step), the “effect on neutrophil adhesion to activated HMEC-1” value was “reduced adhesions significantly and in a dose dependent manner”. The plasma sE-Sel in the data set with Townes mouse model (untreated Townes 139, control mice 57) was found to be 92 ng/mL. Besides, the “plasma sE-Sel levels elevated over control mice” value in the data set with Townes mouse model (untreated Townes increased 144%) stood at 61%. For the same compound, the “effect of food on adverse event profile (nausea, emesis, headache)” value in the data set with patient is recorded as “food can dramatically reduce the adverse event profile”.
